Assay results published in PMC13327620, “A Deep‐Red‐Absorbing Osmium(II) Complex as a Photosensitizer for Photodynamic Therapy Inducing Immunogenic Cell Death” (Angewandte Chemie (International Ed. in English), 2026).
Where two headings read alike, the source gives them in different places.

Key:
[1] = tested on: mouse colon adenocarcinoma (CT-26) cells; assay: Resazurin cell viability assay, (photo)cytotoxicity under hypoxia (1% O2); format: cell-based
Description: (100 U ml−1), streptomycin (100 U ml−1), and 1% L-glutamine. The murine fibrosarcom a (MCA205) cells were cultured in RPMI 1640 medium with 10% fetal bovine serum (FBS), penicillin (100 U ml−1), streptomycin (100 U ml−1), and 1% L-glutamine. All cells were incubated at 37 °C in a humidified atmosphere with 5 % CO2.
Normoxia. The in vitro viability of cells exposed to the complexes was determined using a resazurin assay. C ells were seeded in 96-well plates at densities of 4,000 cells/well for CT26, MC A205 and U-87 MG cells, and 8,000 cells/well for MRC-5 and NIH/3T3 cells. A fter 24 h of growth at 37 °C wit h 5% CO2, the medium was replaced with fresh medium containing various concentrations of the compounds . […] After a 40- h r ecov ery period, a f reshly pr epar ed resazurin solution (0.2 mg/mL) was added to each well, and the plates were left in the dark for 4 h before analysis on a B i o Te k Cytation 5 Cell Imaging Multimode Reader (Agil ent Technologies). […]
Non-irradiat ed plates were similarly refreshed with medium and k ept in th e d ark fo r the same duration. After a 40 -h recovery period, a f res hly prepar ed resazurin solution (0.2 mg/mL) was added to each well, and the plates were left in the dark for 4 h before analysis on a BioTek Cytation 5 Cell Imaging Multimode Reader (Agilent […]

MCA205 cells = assay: In vivo vaccination and rechallenge, MCA205 model; design: species or system C57BL/6 mice; conditions: vaccination with MCA205 cells pre-treated with 500 µM Cisplatin or 1400 µM Oxaliplatin (dark), 5.5 µM Ce6 or 3 µM Os2 (740 nm)
Excerpt: Next, we used these concentrations in the MCA205 vaccination and rechallenge model on C57BL/6 mice to test the in vivo ICD effect of Os2, following the same experimental procedure as that used for CT26‐luc cells in Figure 5A. […] Body weights remained stable across all groups throughout the study, further supporting the good in vivo biosafety of Os2.
The BALB/c female mice were randomly divided into 4 groups with each group containing 5 mice, which were named as Control group, Cisplatin group, Ce6 group and Os2 group. CT26-luc cells wer e treat ed in vitro with 600 µM Cisplatin in the dark, 6.5 µM Ce6 or 1.8 µM Os2 upon 740 nm LED light irradiation (60 min, 12.6 J cm-2) following the methods described above. Subsequently, treated CT26-luc cells (3×10^5 cells in 100 µ L sterile PBS) or 100 µ L sterile PB S were injected subcutaneously into the left flank of each mouse. One week later, mice were r echalleng ed by injection with untreated CT26- luc cells (1×10^6 cells in 100 µL sterile PBS). The mice were monitored by an in vivo imaging system (Biospace Lab, Photon Imager Optima) and the tumor volume was calculated with the following equation: tumor volume = width 2 × length × […]
In vivo vaccination study on MCA205 cells
The C57BL/6 mice were randomly divided into 5 groups with each group containing 10 mice, whi ch w ere nam ed as Control group, Cisplatin group, Oxaliplatin group, Ce6 group and Os2 group. M CA205 cells were treated in vitro with 500 µM Cisplatin o r 1400 µM Oxaliplatin in the dark, 5.5 µM Ce6 or 3 µM Os2 upon 740 nm LED light irradiation (60 min, 12.6 J cm-2) following the methods described above. Subsequently, treated MCA205 cells (3 ×10^5 cells in 100 µ L sterile PBS) or 100 µ L sterile PBS were injected subcutaneously into the left flank of each mouse. One week later, mice were rechallenged by injection with untreated MCA205 cells (1×10^6 cells in 100 µ L sterile PBS). The tumor volume was calculated with the following equation: tumor volume =

Structure (SMILES): C=Cc1c(C)c2cc3nc(c(CC(=O)O)c4[nH]c(cc5nc(cc1[nH]2)C(C)=C5CC)c(C)c4C(=O)O)[C@@H](CCC(=O)O)[C@@H]3C [Ce6, chlorin e6]
- IC50 ([1]; CT26, CT-26, hypoxia (1% O2), dark, read-out: IC50 Dark): > 100 µM
- IC50 ([1]; CT26, light or radiation study, 1 h, CT-26, hypoxia (1% O2), 740 nm, 60 min, 12.60 J/cm2, read-out: IC50 740 nm): 5.63 ± 0.41 µM
- Tumor growth (MCA205 cells): partial suppression
